{"source": "patent US4847387A", "about": "“Antibiotic compounds DC-92B and DC-92D” (Kyowa Hakko Kogyo Co., Ltd., priority 1986, dated 1989)", "key": {"[1]": {"test_system": "Bacillus subtilis No. 10707", "assay": "Minimum inhibitory concentration, agar dilution method", "type": "cell-based", "description": "(§1) (A) Minimum Inhibitory Concentration Against Various Bacteria (MIC: μg/ml)\n(§2) The antibacterial activity was evaluated by the agar dilution method using a medium (pH 7) prepared by dissolving 3 g of Bacto-Tryptone (Difco Laboratories), 3 g of meat extract, 1 g of yeast extract, 1 g of glucose and 16 g of agar in 1 liter of water."}, "[2]": {"test_system": "Escherichia coli ATCC 26", "assay": "Minimum inhibitory concentration, agar dilution method", "type": "cell-based", "description": "as §1, §2"}, "[3]": {"test_system": "Klebsiella pneumoniae ATCC 10031", "assay": "Minimum inhibitory concentration, agar dilution method", "type": "cell-based", "description": "as §1, §2"}, "[4]": {"test_system": "Salmonella typhosa ATCC 9992", "assay": "Minimum inhibitory concentration, agar dilution method", "type": "cell-based", "settings": "Salmonella enterica", "description": "as §1, §2"}, "[5]": {"test_system": "Shigella sonnei ATCC 9290", "assay": "Minimum inhibitory concentration, agar dilution method", "type": "cell-based", "description": "as §1, §2"}, "[6]": {"test_system": "Staphylococcus aureus ATCC 6538P", "assay": "Minimum inhibitory concentration, agar dilution method", "type": "cell-based", "settings": "ATCC6538P, pH 7, read-out: Minimum Inhibitory Concentration (MIC)", "description": "as §1, §2"}, "[7]": {"assay": "in vivo", "settings": "mouse, ip, mice, intraperitoneal administration, read-out: acute toxicity value (LD50)"}, "[8]": {"test_system": "Sarcoma 180 ascites tumor", "assay": "Therapeutic effect against Sarcoma 180 tumor", "type": "in vivo, male ddY-strain mice", "settings": "ten days after implantation", "description": "Six male ddY-strain mice each having a weight of about 20 g were used for each group as test animals, and 5×10^6 cells of Sarcoma 180 ascites tumor were implanted subcutaneously into the animals at the axilla. 0.2 ml of phosphate buffered saline (hereinafter referred to as PBS) containing DC-92B or DC-92D at various concentrations was administered once intraperitoneally 24 hours after implantation. The composition of PBS was 0.8 g/dl NaCl, 0.02 g/dl KCl, […] Na2 HPO4 and 0.02 g/dl KH2 PO4 (pH 7.2).\n(§3) For comparison, 0.2 ml of PBS containing mitomycin C was intraperitoneally administered to a group of animals 24 hours after tumor implantation."}, "[9]": {"test_system": "lymphocytic leukemia P388 tumor", "assay": "Therapeutic effect against lymphocytic leukemia P388 tumor", "type": "in vivo, male CDF1 mice", "description": "Five male CDF1 mice each having a weight of about 22 g were used for each group as test animals, and 1×10^6 cells of lymphocytic leukemia P388 tumor were implanted intraperitoneally into the test animals. 0.2 ml of PBS containing DC-92B or DC-92D was administered once intraperitoneally 24 hours after implantation.\nas §3\n*Continuous administration for five days"}, "[10]": {"assay": "Basicity", "type": "physicochemical"}, "[11]": {"assay": "Solubility"}, "[12]": {"settings": "0.31 mg/kg, once i.p. 24 h after implantation"}, "[13]": {"settings": "0.0125 mg/kg, continuous administration for five days"}, "[14]": {"settings": "0.025 mg/kg, continuous administration for five days"}, "[15]": {"settings": "0.15 mg/kg, once i.p. 24 h after implantation"}, "[16]": {"settings": "methanol, ethanol, acetone, chloroform, ethyl acetate, toluene and dimethylsulfoxide"}, "[17]": {"settings": "1.563 mg/kg, once i.p. 24 h after implantation"}, "[18]": {"settings": "3.125 mg/kg, once i.p. 24 h after implantation"}, "[19]": {"settings": "6.25 mg/kg, once i.p. 24 h after implantation"}, "[20]": {"settings": "0.39 mg/kg, once i.p. 24 h after implantation"}, "[21]": {"settings": "0.78 mg/kg, once i.p. 24 h after implantation"}, "[22]": {"settings": "1.56 mg/kg, once i.p. 24 h after implantation"}, "[23]": {"settings": "3.13 mg/kg, once i.p. 24 h after implantation"}, "[24]": {"settings": "6.0 mg/kg, i.p. 24 h after implantation"}}, "note": "Read-outs that look alike come from different tables or passages of the source.", "data": [{"molecule": "Cc1cc2c(c3oc(C4(C)OC4C4OC4(C)C)cc(=O)c13)C(=O)c1c(O)c(C3CC(C)(N(C)C)C(O)C(C)(O)O3)cc(C3CC(N(C)C)C(O)C(C)O3)c1C2=O", "note": "(stereo not drawn) [DC-92B]", "values": [{"measurement": "MIC", "setting": "[1]; NO.10707, pH 7, read-out: Minimum Inhibitory Concentration (MIC)", "value": 0.15, "unit": "µg/mL"}, {"measurement": "MIC", "setting": "[2]; ATCC26, pH 7, read-out: Minimum Inhibitory Concentration (MIC)", "value": 10, "unit": "µg/mL"}, {"measurement": "MIC", "setting": "[3]; ATCC10031, pH 7, read-out: Minimum Inhibitory Concentration (MIC)", "value": 2.5, "unit": "µg/mL"}, {"measurement": "MIC", "setting": "[4]; pH 7, read-out: Minimum Inhibitory Concentration (MIC)", "value": 40, "unit": "µg/mL"}, {"measurement": "MIC", "setting": "[5]; ATCC9290, pH 7, read-out: Minimum Inhibitory Concentration (MIC)", "value": 10, "unit": "µg/mL"}, {"measurement": "MIC", "setting": "[6]", "value": 0.04, "unit": "µg/mL"}, {"measurement": "LD50", "setting": "[7]", "value": "~0.31", "unit": "mg/kg"}, {"measurement": "Average tumor volume", "setting": "[8]; [12]", "value": 828.6, "unit": "mm^3"}, {"measurement": "T/C (average tumor volume)", "setting": "[8]; [12]", "value": 0.39}, {"measurement": "Increased Life Span (T/C)", "setting": "[9]; [13]", "value": 1.41}, {"measurement": "Survival days (mean)", "setting": "[9]; [13]", "value": 15.5, "unit": "days"}, {"measurement": "Increased Life Span (T/C)", "setting": "[9]; [14]", "value": 1.41}, {"measurement": "Survival days (mean)", "setting": "[9]; [14]", "value": 15.5, "unit": "days"}, {"measurement": "Increased Life Span (T/C)", "setting": "[9]; [15]", "value": 1.47}, {"measurement": "Survival days (mean)", "setting": "[9]; [15]", "value": 16.2, "unit": "days"}, {"measurement": "Basicity", "setting": "[10]", "value": "Weakly basic"}, {"measurement": "Solubility", "setting": "[11]; [16]", "value": "Soluble"}, {"measurement": "Solubility", "setting": "[11]; water and hexane", "value": "sparingly soluble"}]}, {"molecule": "Cc1cc2c(c3oc(C4(C)OC4C4OC4(C)C)cc(=O)c13)C(=O)c1c(O)c(C3CC(C)(N(C)C)C(O)C(C)(O)O3)cc(C3=CC(N(C)C)C(O)C(C)O3)c1C2=O", "note": "(stereo not drawn) [DC-92D]", "values": [{"measurement": "MIC", "setting": "[1]; NO.10707, agar dilution, pH 7, read-out: Minimum Inhibitory Concentration (MIC)", "value": 3, "unit": "µg/mL"}, {"measurement": "MIC", "setting": "[2]; ATCC26, agar dilution, pH 7, read-out: Minimum Inhibitory Concentration (MIC)", "value": 100, "unit": "µg/mL"}, {"measurement": "MIC", "setting": "[3]; ATCC10031, agar dilution, pH 7, read-out: Minimum Inhibitory Concentration (MIC)", "value": 25, "unit": "µg/mL"}, {"measurement": "MIC", "setting": "[4]; agar dilution, pH 7, read-out: Minimum Inhibitory Concentration (MIC)", "value": 100, "unit": "µg/mL"}, {"measurement": "MIC", "setting": "[5]; ATCC9290, agar dilution, pH 7, read-out: Minimum Inhibitory Concentration (MIC)", "value": 100, "unit": "µg/mL"}, {"measurement": "MIC", "setting": "[6]; agar dilution", "value": 1.5, "unit": "µg/mL"}, {"measurement": "LD50", "setting": "[7]", "value": "~5.6", "unit": "mg/kg"}, {"measurement": "Average tumor volume", "setting": "[8]; [17]", "value": 1444.8, "unit": "mm^3"}, {"measurement": "T/C (average tumor volume)", "setting": "[8]; [17]", "value": 0.68}, {"measurement": "Average tumor volume", "setting": "[8]; [18]", "value": 679.9, "unit": "mm^3"}, {"measurement": "T/C (average tumor volume)", "setting": "[8]; [18]", "value": 0.32}, {"measurement": "Average tumor volume", "setting": "[8]; [19]", "value": 764.9, "unit": "mm^3"}, {"measurement": "T/C (average tumor volume)", "setting": "[8]; [19]", "value": 0.36}, {"measurement": "Increased Life Span (T/C)", "setting": "[9]; [20]", "value": 1.04}, {"measurement": "Survival days (mean)", "setting": "[9]; [20]", "value": 11.4, "unit": "days"}, {"measurement": "Survival days (mean)", "setting": "[9]; 0.75 mg/kg, 120 h", "value": 17.4, "unit": "days"}, {"measurement": "Increased Life Span (T/C)", "setting": "[9]; 0.75 mg/kg, continuous administration for five days", "value": 1.58}, {"measurement": "Increased Life Span (T/C)", "setting": "[9]; [21]", "value": 1.17}, {"measurement": "Survival days (mean)", "setting": "[9]; [21]", "value": 12.9, "unit": "days"}, {"measurement": "Increased Life Span (T/C)", "setting": "[9]; [22]", "value": 1.15}, {"measurement": "Survival days (mean)", "setting": "[9]; [22]", "value": 12.7, "unit": "days"}, {"measurement": "Increased Life Span (T/C)", "setting": "[9]; [23]", "value": 0.69}, {"measurement": "Survival days (mean)", "setting": "[9]; [23]", "value": 7.6, "unit": "days"}, {"measurement": "Basicity", "setting": "[10]", "value": "Weakly basic"}, {"measurement": "Solubility", "setting": "[11]; [16]", "value": "Soluble"}, {"measurement": "Solubility", "setting": "[11]; water and hexane", "value": "sparingly soluble"}]}, {"molecule": "CO[C@@]12[C@H](COC(N)=O)C3=C(C(=O)C(C)=C(N)C3=O)N1C[C@@H]1N[C@@H]12", "note": "[Mitomycin C, reference compound]", "values": [{"measurement": "Average tumor volume", "setting": "[8]; [24]", "value": 743.8, "unit": "mm^3"}, {"measurement": "T/C (average tumor volume)", "setting": "[8]; [24]", "value": 0.35}, {"measurement": "Increased Life Span (T/C)", "setting": "[9]; [24]", "value": 1.63}, {"measurement": "Survival days (mean)", "setting": "[9]; [24]", "value": 17.9, "unit": "days"}]}]}
